# Marks after values point to notes of the source that are not given here. Ends that are not written are not given here.
# How the values were obtained:
# Format in all cases: in vivo, ICR mice
# normal mice [1] = experiment: Toxicity reduction for ^60Co radiation in normal mice; conditions: ^60Co 500 rad, 0.42 mg/kg Sc once every other day
# Description: Toxicity Reducing Effect of Ganoderma lucidium Spore Oil Fat Emulsion i.v . Dosage for Chemotherapy ^60Co in Normal Mice
# (§1) Experiment Method: Take 60 ICR mice, apart from the 10 animals in blank control, the other 50 mice are radiated with ^60Co, with a dosage of 500 rad; after radiation with ^60Co, randomize the animals into 5 groups pursuant to body weight, with 10 animals in each group, half of which are females and half of which are males. […] All groups of animals are dosed 24 hours after innoculation, apart from that Thymosin a1 are dosed once every other day, the other groups are administered once daily, with a total dose of 7 times, and the mice are sacrificed 24 hours after termination of dosage, weigh and collect blood from the orbit veins before sacrificing, microscopically examine the total number of peripheral blood leukocytes; at the same time remove spleen, thymus gland and one complete femur, then determine the number of nucleated cells in bone marrow, and weigh the thymus gland and spleen, and calculate the coefficients of thymus glands and spleen organs, and carry out statistical treatment (t Test).
# H22 tumor bearing mice [2] = experiment: Phagocytic activity of reticuloendothelial system (RES) in H22 tumor bearing mice; conditions: 0.42 mg/kg Sc once every other day
# Description: Experiment Treatment Effect of Ganoderma lucidium Spore Oil Fat Emulsion i.v. Dosage Influencing the Phagocytic Activity of Reticuloendothelial System (RES) in H22 Tumor Bearing Mice.
# Experiment Method: Take 50 ICR mice, inoculate with H22 solid tumor, randomize into 5 groups pursuant to body weight, with 10 animals in each group, half of which are females and half of which are males. […] Apart from that Thymosin a1 is administered once every other day, other groups are administered once daily, with a total dosage of 11 times. […] All the data obtained are statistically treated (t Test).
# H22 tumor bearing mice [3] = experiment: Toxicity reduction for ^60Co radiation in H22 tumor bearing mice; conditions: ^60Co 500 rad, 0.42 mg/kg Sc once every other day
# Description: Toxicity Reducing Effect of Ganoderma lucidium Spore Oil Fat Emulsion i.v. Dosage for Chemotherapy with ^60Co in H22 Tumor Bearing Mice
# as §1, with “mice, innoculate with H22 solid tumor pursuant to the research method for transplantable tumors, 24 hours after innoculation,” for “mice,”, “receive ^60Co radiation,” for “are radiated with ^60Co,”, “Apart” for “All groups of animals are dosed 24 hours after innoculation, apart”, “leukocytes,” for “leukocytes;”
# normal mice [4] = experiment: Toxicity reduction for chemotherapy (Cy) in normal mice; conditions: 0.42 mg/kg Sc once every other day + Cy 100 mg/kg ip
# Description: Toxicity reducing Effect of Ganoderma lucidium Spore Oil Fat Emulsion i.v. Dosage for Chemotherapy (Cy) in Normal Mice
# Experiment Method: Take 60 ICR mice, and randomize into 6 groups pursuant to body weight, with 10 animals in each group, half of which are females and half of which are males. […] Apart from that Thymosin a1 is administered once every other day, other groups are administered once daily, with a total dosage of 7 times. On day 4 and day 5 of the administration, apart from blank control, the other groups begin to be treated with ip.Cy (100 mg/kg), for two successive days, and the mice are sacrificed 24 hours after termination of dosage, weigh and collect blood from the orbit veins before sacrificing, microscopically examine the total number of peripheral blood leukocytes, at the same time dissect one complete femur, then determine the number of nucleated cells in the bone marrow, and remove the thymus gland and spleen for weighing, and calculate the coefficients of thymus glands and spleen organs, and carry out statistical treatment (t Test).
# H22 tumor bearing mice [5] = experiment: Delayed hypersensitivity (DNFB) in H22 tumor bearing mice; conditions: 0.42 mg/kg Sc once every other day
# From the text: Experiment Treatment Effect of Ganoderma lucidium Spore Oil Fat Emulsion i.v. Dosage Influencing the Immunity Function of Specific Cells in H22 Tumor Bearing Mice
# Take 50 ICR mice, inoculate with H22 solid tumor pursuant to the research method of transplantable tumor (take the tumor mass under sterile operation, then weigh, grinding with Glass tissue homogenizer, after homogeneity, put into sterile containers, then dilute with normal saline into cell suspension of 1:3, for each mouse, inoculate intracutaneously under the right armpit for 0.2 ml). On the second day, they are randomized into 5 groups, with 10 mice in each group, with half being males and half females, which are divided into: Intravenous Control Group ([…], Blank Group), High, Medium, Low Doasge Groups injected with Ganoderma lucidium spore oil fat emulsion (1, 0.5, 0.25 g/kg) iv administered, Thymosin a1 injection group (0.42 mg/kg) Sc administered; apart from that Thymosin a1 is administered once every other day, other groups are administered once daily, with 7 administration. On day 1 after dosage, hair is removed from the abdomen of each mouse, with an area of 3×3 cm^2. On day 2 after dosage, smear 1% of DNFB evenly on the abdomen of mice (DNFB is a kind of haptene, which after combination with cutaneous proteins could form holoantigen, that stimulate the T Lymphocytes to multiply into sensitized lymphocytes).
# H22 tumor bearing mice [6] = experiment: Toxicity reduction for chemotherapy with cyclophosphamide (Cy) in H22 tumor bearing mice; conditions: 0.42 mg/kg Sc once every other day + Cy 100 mg/kg ip
# Description: Toxicity Reduction Effect of Ganoderma lucidium Spore Oil Fat Emulsion i.v. Dosage for Chemotherapy with Cyclophosphamide (Cy) in H22 Tumor Bearing Mice
# Experiment Method: Take 60 ICR mice, inoculate with H22 solid tumor, weigh 24 hours after inoculation, then randomize into 6 groups, with 10 animals in each group, half of which are females and half of which are males. […] Apart from that Thymosin a1 are dosed once every other day, the other groups are administered once daily, with a total dose of 7 times, on day 4 and day 5 of administration, apart from blank control, the other groups begin to be treated with ip.Cy (100 mg/kg), for two successive day, and the mice are sacrificed 24 hours after termination of dosage, weigh and collect blood from the orbit veins before sacrificing, microscopic examine the total number of peripheral blood leukocytes, at the same time dissect one complete femur, then determine the number of nucleated cells in the bone marrow, and remove the thymus gland and spleen for weighing, and calculate the coefficients of thymus glands and spleen organs, and carry out statistical treatment (t Test).
substance,measurement,setting,value
"Thymosin a1: Positive control drug Thymosin a1 injection, 0.42 mg/kg Sc (SDAAVDTSSEITTKDLKEKKEVVEEAEN; ends and bridges not checked; UniProt P06454 2-29, looked up)",Body Weight After Dosage,normal mice [1],23.30 ± 2.11 g
same,Body Weight Before Dosage,normal mice [1],19.90 ± 1.66 g
same,Spleen Coefficient,normal mice [1],0.31 ± 0.14 g/100 g
same,The number of nucleated cells in bone marrow,normal mice [1],67.83 ± 13.09* 10^5/piece
same,Thymus Gland Coefficient,normal mice [1],0.14 ± 0.05 g/100 g
same,WBC,normal mice [1],1.21 ± 0.38* 10^9/L
same,Clearance Index K,H22 tumor bearing mice [2],0.09 ± 0.02
same,Liver Coefficient,H22 tumor bearing mice [2],6.91 ± 1.08 g/100 g
same,Phagocytic Coefficient α,H22 tumor bearing mice [2],5.71 ± 0.76
same,Spleen Coefficient,H22 tumor bearing mice [2],1.16 ± 0.44 g/100 g
same,Thymus Gland Coefficient,H22 tumor bearing mice [2],0.33 ± 0.11 g/100 g
same,Body Weight After Dosage,H22 tumor bearing mice [3],24.20 ± 2.25 g
same,Body Weight Before Dosage,H22 tumor bearing mice [3],19.60 ± 1.51 g
same,Spleen Coefficient,H22 tumor bearing mice [3],0.33 ± 0.04 g/100 g
same,The number of nucleated cells in bone marrow,H22 tumor bearing mice [3],82.71 ± 13.58* 10^5/piece
same,Thymus Gland Coefficient,H22 tumor bearing mice [3],0.17 ± 0.07 g/100 g
same,WBC,H22 tumor bearing mice [3],1.98 ± 0.31* 10^9/L
same,Body Weight After Dosage,normal mice [4],22.90 ± 2.18 g
same,Body Weight Before Dosage,normal mice [4],19.60 ± 1.26 g
same,Spleen Coefficient,normal mice [4],0.36 ± 0.10 g/100 g
same,The number of nucleated cells in bone marrow,normal mice [4],75.43 ± 13.32* 10^5/piece
same,Thymus Gland Coefficient,normal mice [4],0.18 ± 0.03 g/100 g
same,WBC,normal mice [4],2.04 ± 0.41* 10^9/L
same,Swelling Degree,H22 tumor bearing mice [5]; 24 hours after DNFB attack,13.50 ± 3.44 mg
same,Swelling Rate,H22 tumor bearing mice [5]; 24 hours after DNFB attack,89.12 ± 19.76 %
same,Body Weight After Dosage,H22 tumor bearing mice [5]; in g,25.10 ± 2.18
same,Body Weight Before Dosage,H22 tumor bearing mice [5]; in g,19.30 ± 1.34
same,Body Weight After Dosage,H22 tumor bearing mice [6],23.60 ± 2.27 g
same,Body Weight Before Dosage,H22 tumor bearing mice [6],19.70 ± 1.57 g
same,Spleen Coefficient,H22 tumor bearing mice [6],0.64 ± 0.21 g/100 g
same,The number of nucleated cells in bone marrow,H22 tumor bearing mice [6],73.31 ± 15.99* 10^5/piece
same,Thymus Gland Coefficient,H22 tumor bearing mice [6],0.12 ± 0.04 g/100 g
same,WBC,H22 tumor bearing mice [6],2.03 ± 0.44* 10^9/L

# Source: US20110059124A1, “THE QUALITY CONTROL METHOD AND APPLICATION OF A KIND OF GANODERMA LUCIDUM SPORE OIL FAT EMULSION” (Guangzhou Hanfang Natural Medicine Research & Development …, priority 2008, published 2011)
